Active and inactive are the calls of the source. No cut-off for these calls is given here.
Legend:
[1] = molecular target: T1, Tyrosine-protein phosphatase non-receptor type 1 (Homo sapiens) (UniProt P18031); assay: Inhibition of recombinant human PTP-1B expressed in Escherichia coli TB1 at 50 uM using p-nitrophenyl phosphate as substrate
T1 sequence (whole entry): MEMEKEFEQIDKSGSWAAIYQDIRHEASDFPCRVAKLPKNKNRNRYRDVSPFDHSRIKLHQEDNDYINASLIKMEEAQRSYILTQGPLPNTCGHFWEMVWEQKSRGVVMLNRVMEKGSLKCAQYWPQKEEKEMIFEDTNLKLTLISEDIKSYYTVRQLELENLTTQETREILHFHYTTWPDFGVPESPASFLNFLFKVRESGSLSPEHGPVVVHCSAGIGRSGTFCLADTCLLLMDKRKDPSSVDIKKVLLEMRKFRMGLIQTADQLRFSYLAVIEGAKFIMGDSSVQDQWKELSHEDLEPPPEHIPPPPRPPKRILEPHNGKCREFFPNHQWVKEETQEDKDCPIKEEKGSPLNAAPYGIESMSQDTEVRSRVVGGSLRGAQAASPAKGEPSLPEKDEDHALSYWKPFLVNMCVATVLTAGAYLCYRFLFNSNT

[2] = test system: Rattus norvegicus; assay: Antidiabetic activity in non insulin dependent streptozotocin/nicotinamide-induced diabetic Wistar rat model assessed as decrease in blood glucose levels at 50 mg/kg, ig administered as single dose measured after 3 hrs by glucometer; assay type: functional, organism-based
[3] = test system: Rattus norvegicus; assay: Antidiabetic activity in non insulin dependent streptozotocin/nicotinamide-induced diabetic Wistar rat model assessed as decrease in blood glucose levels at 50 mg/kg, ig administered as single dose measured after 7 hrs by glucometer; assay type: functional; parameters: scale not given: the % may be the effect or the level left
[4] = molecular target: T2, Low molecular weight phosphotyrosine protein phosphatase (Homo sapiens, UniProt P24666); assay: Inhibition of recombinant human LMW-PTP isoform 2 expressed in Escherichia coli TB1
T2 sequence (P24666 whole entry): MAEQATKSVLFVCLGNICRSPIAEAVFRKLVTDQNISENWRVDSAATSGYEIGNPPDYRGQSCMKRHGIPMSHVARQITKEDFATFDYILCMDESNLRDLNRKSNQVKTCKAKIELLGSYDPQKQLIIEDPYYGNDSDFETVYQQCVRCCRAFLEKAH

[5] = molecular target: T3, Tyrosine-protein phosphatase non-receptor type 2 (Homo sapiens, UniProt P17706); assay: Inhibition of recombinant human TC-PTP expressed in Escherichia coli TB1
T3 sequence (P17706 whole entry): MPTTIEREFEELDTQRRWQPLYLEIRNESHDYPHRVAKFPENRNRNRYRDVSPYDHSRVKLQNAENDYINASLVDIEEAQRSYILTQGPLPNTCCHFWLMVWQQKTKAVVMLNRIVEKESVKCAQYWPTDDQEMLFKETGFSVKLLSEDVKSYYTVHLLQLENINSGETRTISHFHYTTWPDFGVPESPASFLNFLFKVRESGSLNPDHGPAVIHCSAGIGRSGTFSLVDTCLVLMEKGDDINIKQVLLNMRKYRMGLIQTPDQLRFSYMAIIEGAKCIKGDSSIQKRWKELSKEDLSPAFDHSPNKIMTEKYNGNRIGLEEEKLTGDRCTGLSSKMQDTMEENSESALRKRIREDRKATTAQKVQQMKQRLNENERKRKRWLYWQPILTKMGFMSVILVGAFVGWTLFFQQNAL

[6] = molecular target: T4, Tyrosine-protein phosphatase non-receptor type 1 (Homo sapiens, UniProt P18031); assay: Inhibition of recombinant human PTP-1B expressed in Escherichia coli TB1 using p-nitrophenyl phosphate as substrate
T4 sequence (P18031 whole entry): T1 sequence (whole entry)

[7] = molecular target: T2, Low molecular weight phosphotyrosine protein phosphatase; assay: Inhibition of recombinant human LMW-PTP isoform 1 expressed in Escherichia coli TB1
[8] = molecular target: T4, Tyrosine-protein phosphatase non-receptor type 1; assay: Competitive inhibition of recombinant human PTP-1B expressed in Escherichia coli TB1 using p-nitrophenyl phosphate as substrate by Lineweaver-Burk plot analysis
[9] = molecular target: T1, Tyrosine-protein phosphatase non-receptor type 1 (Homo sapiens); assay: Reversible inhibition of recombinant human PTP-1B expressed in Escherichia coli TB1 at 10 times IC50 using p-nitrophenyl phosphate as substrate preincubated for 90 mins followed by 400 fold dilution
[10] = Solubility of compound in DMSO; assay type: physicochemical
[11] = molecular target: T1, Tyrosine-protein phosphatase non-receptor type 1 (Homo sapiens); assay: Partial reversible inhibition of recombinant human PTP-1B expressed in Escherichia coli TB1 at 10 times IC50 using p-nitrophenyl phosphate as substrate preincubated for 90 mins followed by 400 fold dilution
[12] = organism: Homo sapiens; assay: Selectivity ratio of IC50 for recombinant human LMW-PTP isoform 2 expressed in Escherichia coli TB1 to IC50 for recombinant human PTP-1B expressed in Escherichia coli TB1
[13] = organism: Homo sapiens; assay: Selectivity ratio of IC50 for recombinant human LMW-PTP isoform 1expressed in Escherichia coli TB1 to IC50 for recombinant human PTP-1B expressed in Escherichia coli TB1

SMILES	inhibition [1]	IC50 [4] [µM]	IC50 [5] [µM]	IC50 [6] [µM]	IC50 [7] [µM]	also measured
CCOC(=O)[C@]12CCC(C)(C)C=C1[C@H]1CC[C@@H]3[C@@]4(C)CCC(=O)C(C)(C)[C@@H]4CC[C@@]3(C)[C@]1(C)CC2	Active	–	–	–	–	–
CC1(C)CC[C@]2(O)CC[C@]3(C)[C@H](CC[C@@H]4[C@@]5(C)CCC(=O)OC(C)(C)[C@@H]5CC[C@]43C)C23OC13 (stereo partly specified)	Active	–	–	–	–	–
COC(=O)[C@]12CCC(C)(C)C=C1[C@H]1CC[C@@H]3[C@@]4(C)CCC(=O)C(C)(C)[C@@H]4CC[C@@]3(C)[C@]1(C)CC2	100%	62.5	> 100	10.8	33.7	Activity [2]: Active; Activity [3]: 40%; Ki [8]: 3.1 µM; inhibition [9]: Active
CC1(C)C=C2[C@H]3CC[C@@H]4[C@@]5(C)CCC(=O)C(C)(C)[C@@H]5CC[C@@]4(C)[C@]3(C)CC[C@@]2(C(=O)NC2CCCCC2)CC1	Active	–	–	–	–	–
CC1(C)C=C2[C@H]3CC[C@@H]4[C@@]5(C)CCC6(OCCO6)C(C)(C)[C@@H]5CC[C@@]4(C)[C@]3(C)CC[C@@]2(CO)CC1	100%	29.3	> 100	7.5	16.1	solubility [10]: soluble; inhibition [11]: Active; Ratio IC50 [12]: 4; Ratio IC50 [13]: 2
